According to US10323004B2, “Inhibitors of indoleamine 2,3-dioxygenase and methods of their use” (BRISTOL-MYERS SQUIBB COMPANY, priority 2016, dated 2019):

These molecules were tested against T1, human IDO1 (Homo sapiens, UniProt P14902) (assay: human IDO1/HEK293 cell IDO inhibition assay (kynurenine production)). Conditions: HEK293 cells stably expressing human IDO1; 20 hours incubation; absorbance at 490 nm; read-out: Biol. Activity (HEK μM) IDO IC50.
T1 construct: expressed in transfected cells
Assay type: cell-based
Description: HEK293 cells were transfected with a pCDNA-based mammalian expression vector harboring human IDO1 cDNA (NM 002164.2) by electroporation. They were cultured in medium (DMEM with 10% FBS) containing 1 mg/ml G418 for two weeks. Clones of HEK293 cells that stably expressed human IDO1 protein were selected and expanded for IDO inhibition assay.
The human IDO1/HEK293 cells were seeded at 10,000 cells per 50 μL per well with RPMI/phenol red free media contains 10% FBS in a 384-well black wall clear bottom tissue culture plate (Matrix Technologies LLC) 100 nL of certain concentration of compound was then added to each well using ECHO liquid handling systems. The cells were incubated for 20 hours in 37° C. incubator with 5% CO2.
The compound treatments were stopped by adding trichloroacetic acid (Sigma-Aldrich) to a final concentration at 0.2%. The cell plate was further incubated at 50° C. for 30 minute. The equal volume supernatant (20 μL) and 0.2% (w/v) Ehrlich reagent (4-dimethylaminobenzaldehyde, Sigma-Aldrich) in glacial acetic acid were mixed in a new clear bottom 384-well plate. This plate was then incubated at room temperature for 30 minute. The absorbance at 490 nm was measured on Envision plate reader.
Compound IC50 values were calculated using the counts of 500 nM of a reference standard treatment as one hundred percent inhibition, and counts of no compound but DMSO treatment as zero percent inhibition.

T1 sequence (P14902 whole entry): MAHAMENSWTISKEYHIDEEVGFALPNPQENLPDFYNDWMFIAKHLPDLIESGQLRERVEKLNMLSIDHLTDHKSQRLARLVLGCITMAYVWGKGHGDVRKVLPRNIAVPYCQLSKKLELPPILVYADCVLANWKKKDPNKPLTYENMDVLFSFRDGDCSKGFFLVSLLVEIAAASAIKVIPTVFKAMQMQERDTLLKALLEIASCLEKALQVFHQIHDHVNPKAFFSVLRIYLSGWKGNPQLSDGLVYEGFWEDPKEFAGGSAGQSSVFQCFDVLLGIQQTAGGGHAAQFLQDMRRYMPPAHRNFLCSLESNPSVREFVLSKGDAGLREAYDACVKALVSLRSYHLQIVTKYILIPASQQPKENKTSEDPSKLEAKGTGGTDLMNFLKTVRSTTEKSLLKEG

`N#Cc1ccc(C(=O)N(Cc2ccccc2)[C@H]2CC[C@H](c3ccnc4ccc(F)cc43)CC2)cc1` [Example 3, N-benzyl-4-cyano-N-(trans-4-(6-fluoroquinolin-4-yl)cyclohexyl)benzamide] and `O=C(c1ccc(Cl)cc1)N(Cc1ccccc1)[C@H]1CC[C@H](c2ccnc3ccc(F)cc32)CC1` [Example 2, N-benzyl-4-chloro-N-(trans-4-(6-fluoroquinolin-4-yl)cyclohexyl)benzamide] cannot be ordered by IC50: < 10 µM for the first, < 1 µM for the second.

`O=C(Cc1ccc(Cl)cc1)N(Cc1ccccc1)[C@H]1CC[C@H](c2ccnc3ccc(F)cc32)CC1` [Example 1, N-benzyl-2-(4-chlorophenyl)-N-(trans-4-(6-fluoroquinolin-4-yl)cyclohexyl)acetamide] and `O=C(Cc1ccc(Cl)cc1)N(Cc1ccccc1)[C@H]1CC[C@@H](c2ccnc3ccc(F)cc32)CC1` [Example 4, N-benzyl-2-(4-chlorophenyl)-N-(cis-4-(6-fluoroquinolin-4-yl)cyclohexyl)acetamide] cannot be ordered by IC50: < 10 µM for the first, < 10 µM for the second.
